Values of other authors in patent US20090054381A1, “METHODS FOR TREATING RESPIRATORY DISORDERS” (NitroMed, Inc., priority 2005, published 2009).
Where a name gives a salt, the structure may show the parent alone.

Row | solubility in alcohol (alcohol) | solubility in ether (ether) | SMILES | solubility in organic solvents (organic solvents such as ethanol, ether and chloroform) | solubility in water
1 | – | – | O=[N+]([O-])O[C@H]1CO[C@H]2[C@@H]1OC[C@H]2O[N+](=O)[O-] [Diluted isosorbide dinitrate, 1,4,3,6-dianhydro-D-glucitol-2,5-dinitrate] | freely soluble | sparingly soluble
2 | slightly soluble | very slightly soluble | NNc1nncc2ccccc12 [Hydralazine hydrochloride, hydralazine hydrochloride] | – | soluble
